Measured values reported in patent US20240225971A1 (Genomatica, Inc., priority 2021, published 2024).
Values after ≈ are worked out from the molar mass of the structure shown. Where two headings read alike, the source gives them in different places.

Experiments:
[1] = Flash point of fragrance ingredients; assay type: physicochemical
Description: (§1) Also included is the molecular weight of each of the fragrance ingredients. Not determinable (ND).

[2] = Clarity of fragrance ingredient in bioderived 1,3-BG by visual observation
Method: (§2) Clarity for each of the fragrance ingredients (10% in bioderived 1,3-BG) was determined by visual observations after compounding and blending the fragrance ingredient with bioderived 1,3-BG and identified as clear, slightly haze, cloudy, particles, or separation.
(§3) Clarity for each of the fragrance ingredients (at 1% in bioderived 1,3-BG) was determined by visual observations after compounding and blending the fragrance ingredient with bioderived 1,3-BG and identified as clear, slightly haze, cloudy, particles, or separation.

[3] = Vapor pressure of fragrance ingredients
Description: as §1

[4] = Solubility of fragrance ingredients in bioderived 1,3-BG (visual inspection); settings: 10% ingredient in bioderived 1,3-BG; excellent, good, moderate, poor, or none
Method: as §2, §3

[5] = Water solubility at 25° C. of fragrance ingredients
Description: as §1

physchem = experiment: physchem
Description: The term “fragrance composition” or “composition,” as used herein, represents a composition containing one or more fragrance ingredients described here and formulated with a physiologically acceptable diluent or solvent, used interchangeably here. In a fragrance composition, or composition that has a fragrance, such as a perfume, 20%-40% of the observable liquid may be comprised of a diluent, i.e., the delivery system for scents of the fragrance ingredients. The “log P” value, as used here, indicates whether a substance or fragrance ingredient will be absorbed by humans, animals, plants, or living tissue; diffused or disseminated by water.
as §1

[6] = Repeated Insult Patch Test; assay type: in vivo, human
Method: Prior to the initiation of the study, each jar containing the test material received a N2 blanket conducted by the Analytical Department at Consumer Product Testing Company.
The upper back between the scapulae served as the treatment area. Approximately 0.2 ml of the test material, or an amount sufficient to cover the contact surface, was applied to the 1″×1″ absorbent pad portion of a clear adhesive dressing. This was then applied to the appropriate treatment site to form a semi-occlusive patch.
Erythema was scored numerically according to the key in TABLE 16. If present, additional Dermal Sequelae were indicated by the appropriate letter code and a numerical value for severity was assigned.
Patches were applied three (3) times per week (e.g., Monday, Wednesday, and Friday) for a total of nine (9) applications. The site was marked to ensure the continuity of patch application. Following supervised removal and scoring of the first Induction patch, participants were instructed to remove all subsequent Induction patches at home, twenty-four hours after application. The evaluation of this site was made again just prior to re-application. If a participant was unable to report for an assigned test day, one (1) makeup day was permitted. This day was added to the Induction period.
Applications were discontinued for the remainder of this test phase, if a moderate (2-level) reaction was observed on this new test site. Applications would also be discontinued if marked (3-level) or severe (4-level) reactivity was noted.
Rest periods consisted of one day following each Tuesday and Thursday removal, and two days following each Saturday removal.
Approximately two (2) weeks after the final Induction patch application, a Challenge patch was applied to a virgin test site adjacent to the original Induction patch site, following the same procedure described for the Induction Phase. The Challenge patch was removed and the site scored at the clinic on Day 1 and Day 3 post-application.

[7] = Technical quality analysis (viscosity, precipitation, color, visual clarity, skin testing)
Method: Color changes were noted if there were any color variation resulting from the addition of fragrance ingredient in diluent. For select fragrance ingredients, skin testing was performed. Specifically, in the first round of testing, skin odor evaluation was performed on an interim basis for selective ingredients.

microorganisms = experiment: Minimum Inhibitory Concentration (MIC) testing; assay type: cell-based
[8] = 10% ingredient in bioderived 1,3-BG, clear, slightly haze, cloudy, particles, or separation

Molecule | Flash Point [1] [°C] | Clarity 10% [2, 8] | Vapor Pressure [3] [mm hg] | Water Solubility ([5]; 25° C.) [µg/mL] | logP (physchem) | further results
CCCc1ccc(O)c(OC)c1 [Dihydro Eugenol] | 100 | Clear | 0.006 | 228.000 | 2.39 | Solubility 10% [4]: Good
CC(O)CCO (stereo not shown) [bioBG, 1,3-butylene glycol] | – | – | – | – | – | adverse events ([6]; 40% dilution in water): no adverse events; Virgin Challenge Site Day 1* skin reaction score ([6]; bioBG diluted to 40%, human subjects, Challenge patch, Day 1 post-application, supervised removal, one line per subject): 0; Virgin Challenge Site Day 3 skin reaction score ([6]; bioBG diluted to 40%, human subjects, Challenge patch, Day 3 post-application, one line per subject): 0; Induction Phase 2 skin reaction score ([6]; bioBG diluted to 40%, human subjects, Induction reading 2, one line per subject): 0; Induction Phase 3 skin reaction score ([6]; bioBG diluted to 40%, human subjects, Induction reading 3, one line per subject): 0; Induction Phase 4 skin reaction score ([6]; bioBG diluted to 40%, human subjects, Induction reading 4, one line per subject): 0; Induction Phase 5 skin reaction score ([6]; bioBG diluted to 40%, human subjects, Induction reading 5, one line per subject): 0; Induction Phase 6 skin reaction score ([6]; bioBG diluted to 40%, human subjects, Induction reading 6, one line per subject): 0; Induction Phase 7 skin reaction score ([6]; bioBG diluted to 40%, human subjects, Induction reading 7, one line per subject): 0; Induction Phase 8 skin reaction score ([6]; bioBG diluted to 40%, human subjects, Induction reading 8, one line per subject): 0; Induction Phase 9 skin reaction score ([6]; bioBG diluted to 40%, human subjects, Induction reading 9, one line per subject): 0; Induction Phase Day 1* skin reaction score ([6]; bioBG diluted to 40%, human subjects, first Induction patch, supervised removal, one line per subject): 0; skin properties when applied to skin ([6]; up to a concentration of 40%): non-irritating, non-sensitizing, and/or non-allergenic; visual clarity compared to DPG, BB, IPM [7]: exceptional visual clarity with a crystal clear appearance; viscosity ([7]; observed with the different fragrance ingredients): very consistent; MIC (microorganisms; Escherichia coli, E. coli, concentration completely inhibiting microbial growth): 100 mg/mL (≈ 1110 mM); inhibition of microbial growth in MIC tests (microorganisms; compared to 1,3-PG and glycerin): increased ability to inhibit microbial growth compared to 1,3-Propylene Glycol (1,3-PG) and glycerin
CC12CCC(CC1)C(C)(C)O2 [Eucalyptol] | 50 | Clear | 1.9 | – | 2.74 | solubility ([5]; water, 25 °C): 3500 µg/mL (≈ 22.7 mM)
C=CC(C)CCCC(C)(C)O (stereo not shown) [Dihydro Myrcenol] | 76 | Clear | 0.166 | 252.200 | 2.99 | –
CC1COCc2cc3c(cc21)C(C)(C)C(C)C3(C)C (stereo not shown) [Galaxolide] | 104 | Separation | 0.000414 | – | 5.92 | solubility ([5]; 25 °C, water): 0.194 µg/mL (≈ 0.000751 mM)
CCC(CC)C(=O)N(C)c1cccc(C)c1 [Paradisamide] | 138 | Clear | 0.0038 | 46.430 | 3.295 | –
CCCCCC1C(=O)CCC1CC(=O)OC (stereo not shown) [Hedione] | 148 | Clear | 0.001 | 91.720 | 2.653 | Solubility 10% [4]: Good
CCCCCCCCCC(C)C=O (stereo not shown) [Aldehyde C-12 MNA] | 69 | Clear | 4.834 | 5.372 | 4.834 | –
Caryophyllene | 16 | – | 0.013 | 0.050 | 6.3 | Clarity 1% [2]: Slightly Haze; Clarity 10% [2]: Cloudy
O=C1CCCCCCCCCCCC(=O)OCCO1 [Ethylene Brassylate] | 110 | Cloudy | 0 | – | 2.77 | solubility ([5]; water, 25 °C): 1.72 µg/mL (≈ 0.00636 mM)
OCCCO [1,3-PG, 1,3-Propylene Glycol] | – | – | – | – | – | MIC A. brasiliensis (microorganisms; A. brasiliensis, concentration completely inhibiting microbial growth): >350 mg/mL; MIC C. albicans (microorganisms; C. albicans, concentration completely inhibiting microbial growth): 250 mg/mL (≈ 3290 mM); MIC E. coli (microorganisms; E. coli, concentration completely inhibiting microbial growth): 225 mg/mL (≈ 2960 mM); MIC P. aeruginosa (microorganisms; P. aeruginosa, concentration completely inhibiting microbial growth): 200 mg/mL (≈ 2630 mM); MIC S. aureus (microorganisms; S. aureus, concentration completely inhibiting microbial growth): 300 mg/mL (≈ 3940 mM)
CC(C)CCCC(C)(C)O [Dimetol] | 63 | Clear | 0.33 | 777.000 | 2.976 | –
N#C/C=C/c1ccccc1 [Cinnamalva] | 94 | Clear | 0.023 | – | 1.84 | Water Solubility [5]: 1067.000 µg/mL
COc1ccc(COC(C)=O)cc1 [Anisyl Acetate] | 135 | – | 0.021 | 782.900 | 1.887 | Clarity 1% [2]: Clear; Clarity 10% [2]: Clear
CCCCCCCCCCCC=O [Aldehyde C-12 Lauric] | 116 | Clear | 0.034 | 4.649 | 4.989 | –
